Experimental data reported in patent publication EP1149092B1, “4- AND 5-ALKYNYLOXINDOLES AND 4- AND 5-ALKENYLOXINDOLES” (F. HOFFMANN-LA ROCHE AG, priority 1998, dated 2000).

Target: rat SAPK (isoform β) (Rattus norvegicus, UniProt P49187)
Test: SAPK FlashPlate Assay (inhibition of cJun phosphorylation)
Type: biochemical
Conditions: GST-cJun substrate, 30 minutes at 37 °C
Method: "IC50" refers to the concentration of a particular 4- or 5-alkynyloxindole or 4-or 5-alkenyloxindole required to inhibit 50% of cJun phosphorylation, which is a measure of inhibition of SAPK activity. IC50 can be measured, inter alia, using the assay described herein in Example 102.
Human JNK is highly homologous to rat SAPK. To measure the inhibitory activity of test compounds, the compounds were tested in the rat SAPK assay.
For the SAPK assay, purified GST-cJun (a chimeric protein containing cJun, a natural substrate of JNK) was coated on 96 well FlashPlates (New England Nuclear, Boston, MA). Purified rat SAPK (isoform β, Kyriakis et al. supra) was preincubated with preparations containing MEKK-1 and MKK4 for 30 minutes at 37 °C in assay buffer containing 25 mM HEPES, pH 7.5, 150 mM NaCl, 20 mM MgCl2, 2 mM DTT, 0.001% Tween 20, 1 µM ATP freshly added. In the preincubation step, MEKK-1 phosphorylates and activates MKK-4, which in tum phosphorylates and activates SAPK. The activated SAPK was then added to the cJun coated FlashPlates along with ^33P-ATP (0.32 µCi per reaction) and test compounds. The plates were incubated for 30 minutes at 37 °C, then washed with PBS, 0.01% Tween 20, and counted in the Topcount scintillation counter (Packard Instrument Co., Downers Grove, IL). Dilutions of compounds were tested in duplicate in each assay. The percent inhibition of cJun phosphorylation (a measure of inhibition of SAPK activity) was determined by the following formula: [formula] where "test compound" refers to the average counts per minute of the test duplicates, "nonspecific" refers to the average counts per minute when no SAPK was added, and "total" refers to the average counts per minute when no compound was added.

rat SAPK (isoform β), sequence (P49187 whole entry, canonical isoform): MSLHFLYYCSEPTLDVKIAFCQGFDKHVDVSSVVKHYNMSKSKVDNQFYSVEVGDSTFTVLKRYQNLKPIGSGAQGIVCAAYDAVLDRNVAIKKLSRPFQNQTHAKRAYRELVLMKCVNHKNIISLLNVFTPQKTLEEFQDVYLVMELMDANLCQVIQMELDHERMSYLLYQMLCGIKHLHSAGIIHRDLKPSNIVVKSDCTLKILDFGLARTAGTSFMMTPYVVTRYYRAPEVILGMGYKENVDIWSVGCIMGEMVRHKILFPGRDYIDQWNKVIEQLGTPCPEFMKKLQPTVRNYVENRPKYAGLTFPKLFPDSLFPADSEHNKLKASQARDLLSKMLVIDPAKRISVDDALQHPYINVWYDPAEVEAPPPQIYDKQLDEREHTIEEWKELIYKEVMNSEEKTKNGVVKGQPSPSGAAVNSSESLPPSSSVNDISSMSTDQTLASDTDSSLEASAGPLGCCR

| SMILES | IC50 [µM] |
| --- | --- |
| COc1cc[nH]c1/C=C1\C(=O)Nc2cccc(C#CC(O)c3ccc(NC(C)=O)cc3)c21 (racemic) [BBB, rac-(Z)-4-[3-(4-Acetamidophenyl)-3-hydroxy-1-propynyl]-1,3-dihydro-3-[(3-methoxy-1H-pyrrol-2-yl)methylene]-2H-indol-2-one] | < 1 |
| COc1ccccc1C(O)C#Cc1cccc2c1/C(=C/c1[nH]ccc1OC)C(=O)N2 (racemic) [Compound M, rac-(Z)-1,3-Dihydro-4-[3-hydroxy-3-(2-methoxyphenyl)-1-propynyl]-3-[(3-methoxy-1H-pyrrol-2-yl)methylene]-2H-indol-2-one] | < 1 |
| COc1cc(C(O)C#Cc2cccc3c2/C(=C/c2[nH]ccc2OC)C(=O)N3)ccc1OCCN1CCOCC1 (racemic) [Compound MM, rac-(Z)-1,3-Dihydro-4-[3-hydroxy-3-[3-methoxy-4-[2-(4-morpholinyl)-ethoxy]-phenyl]-1-propynyl]-3-[(3-methoxy-1H-pyrrol-2-yl)methylene]-2H-indol-2-one] | < 1 |
| COc1cc[nH]c1/C=C1\C(=O)Nc2cccc(C#CC(C)(O)c3ccccc3)c21 (racemic) [Compound T, rac-(Z)-1,3-Dihydro-4-[3-hydroxy-3-phenyl-1-butynyl]-3-[(3-methoxy-1H-pyrrol-2-yl)methylene]-2H-indol-2-one] | 0.253 |
| COc1cc[nH]c1/C=C1\C(=O)Nc2cccc(C#CC(O)c3ccc(OCCN4CCOCC4)cc3)c21 (racemic) [Compound TT, rac-(Z)-1,3-Dihydro-4-[3-hydroxy-3-[4-[2-(4-morpholinyl)-ethoxy]-phenyl]-1-propynyl]-3-[(3-methoxy-1H-pyrrol-2-yl)methylene]-2H-indol-2-one] | < 1 |
| COc1cc[nH]c1/C=C1\C(=O)Nc2cccc(C#CC(O)c3ccc[nH]3)c21 (racemic) [DD, rac-(Z)-1,3-Dihydro-4-[3-hydroxy-3-(1H-pyrrol-2-yl)-1-propynyl]-3-[(3-methoxy-1H-pyrrol-2-yl)methylene]-2H-indol-2-one] | < 1 |
| COc1ccc(C(O)C#Cc2cccc3c2/C(=C/c2[nH]ccc2OC)C(=O)N3)cc1OC (racemic) [FF, rac-(Z)-1,3-Dihydro-4-[3-(3,4-dimethoxyphenyl)-3-hydroxy-1-propynyl]-3-[(3-methoxy-1H-pyrrol-2-yl)methylene]-2H-indol-2-one] | < 1 |
| COc1cc[nH]c1/C=C1\C(=O)Nc2cccc(C#Cc3ccccn3)c21 [DDD, (Z)-1,3-Dihydro-3-[(3-methoxy-1H-pyrrol-2-yl)methylene]-4-[(2-pyridinyl)ethynyl]-2H-indol-2-one] | < 1 |
| COc1cc[nH]c1/C=C1\C(=O)Nc2cccc(C#Cc3ccncc3)c21 [EEE, (Z)-1,3-Dihydro-3-[(3-methoxy-1 H-pyrrol-2-yl)methylene]-4-[(4-pyridinyl)ethynyl]-2H-indol-2-one] | < 1 |
| COc1cc[nH]c1/C=C1\C(=O)Nc2ccc([N+](=O)[O-])c(C#Cc3cccnc3)c21 [GGG, (Z)-1,3-Dihydro-3-[(3-methoxy-1H-pyrrol-2-yl)methylene]-5-nitro-4-[(3-pyridinyl)ethynyl]-2H-indol-2-one] | < 1 |

Results, then the compound that gave them:

| IC50 [µM] | SMILES |
| --- | --- |
| < 1 | COc1ccc(C(O)C#Cc2cccc3c2/C(=C/c2[nH]ccc2OC)C(=O)N3)cc1O (racemic) [HH, rac-(Z)-1,3-Dihydro-4-[3-hydroxy-3-(3-hydroxy-4-methoxyphenyl)-1-propynyl]-3-[(3-methoxy-1H-pyrrol-2-yl)methylene]-2H-indol-2-one] |
| < 1 | COc1cc[nH]c1/C=C1\C(=O)Nc2cccc(C#CC(O)c3sccc3OC)c21 (racemic) [OO, rac-(Z)-1,3-Dihydro-4-[3-hydroxy-3-(3-methoxy-2-thiophenyl)-1-propynyl]-3-[(3-methoxy-1H-pyrrol-2-yl)methylene]-2H-indol-2-one] |
| < 1 | COc1cc(OC)c(C(O)C#Cc2cccc3c2/C(=C/c2[nH]ccc2OC)C(=O)N3)cc1OC (racemic) [PP, rac-(Z)-1,3-Dihydro-4-[3-hydroxy-3-(2,4,5-trimethoxyphenyl)-1-propynyl]-3-[(3-methoxy-1H-pyrrol-2-yl)methylene]-2H-indol-2-one] |
| < 1 | COc1cc[nH]c1/C=C1\C(=O)Nc2cccc(C#CC(O)c3ccc(O)cc3)c21 (racemic) [Q, rac-(Z)-1,3-Dihydro-4-[3-hydroxy-3-(4-hydroxyphenyl)-1-propynyl]-3-[(3-methoxy-1H-pyrrol-2-yl)methylene]-2H-indol-2-one] |
| < 1 | COc1cc(C(O)C#Cc2cccc3c2/C(=C/c2[nH]ccc2OC)C(=O)N3)ccc1OCC(=O)O (racemic) [RR, rac-(Z)-[4-[3-[2,3-Dihydro-3-[(3-methoxy-1H-pyrrol-2-yl)methylene]-2-oxo-1H-indol-4-yl]-1-hydroxy-2-propynyl]-2-methoxyphenoxy]acetic acid] |
| < 1 | COc1cc[nH]c1/C=C1\C(=O)Nc2cccc(C#CC(O)c3cc(OC)c4c(c3)OCO4)c21 (racemic) [SS, rac-(Z)-4-[3-hydroxy-3-(4-methoxy-1,3-benzodioxol-6-yl)-1-propynyl]-1,3-dihydro-3-[(3-methoxy-1H-pyrrol-2-yl)methylene]-2H-indol-2-one] |
| < 1 | COc1cc[nH]c1/C=C1\C(=O)Nc2cccc(C#CC(O)c3ccc(Cl)cc3OCSC)c21 (racemic) [UU, rac-(Z)-4-[3-(4-Chloro-2-methylsulfanylmethoxyphenyl)-3-hydroxy-1-propynyl]-1,3-dihydro-3-[(3-methoxy-1H-pyrrol-2-yl)methylene]-2H-indol-2-one] |
| 0.034 | COc1cc[nH]c1/C=C1\C(=O)Nc2cccc(C#CC(O)c3ccc(OCCCN(C)C)cc3)c21 (racemic) [V, rac-(Z)-1,3-Dihydro-4-[3-[4-(3-dimethylaminopropoxy)-phenyl]-3-hydroxy-1-propynyl]-3-[(3-methoxy-1H-pyrrol-2-yl)methylene]-2H-indol-2-one] |
| < 1 | COc1cc[nH]c1/C=C1\C(=O)Nc2cccc(C#CC(O)c3ccco3)c21 (racemic) [VV, rac-(Z)-1,3-Dihydro-4-[3-(2-furanyl)-3-hydroxy-1-propynyl]-3-[(3-methoxy-1H-pyrrol-2-yl)methylene]-2H-indol-2-one] |
| < 1 | COc1cc[nH]c1/C=C1\C(=O)Nc2cccc(C#CC(O)c3ccc(OCC(=O)OC(C)(C)C)cc3)c21 (racemic) [XX, rac-(Z)-[4-[3-[2,3-dihydro-3-[(3-methoxy-1H-pyrrol-2-yl)methylene]-2-oxo-1H-indol-4-yl]-1-hydroxy-2-propynyl]phenoxy]acetic acid 1,1-dimethylethyl ester] |
| < 1 | COc1cc[nH]c1/C=C1\C(=O)Nc2cccc(C#CC(O)c3ccc(OCC(=O)O)cc3)c21 (racemic) [YY, rac-(Z)-[4-[3-[2,3-dihydro-3-[(3-methoxy-1H-pyrrol-2-yl)methylene]-2-oxo-1H-indol-4-yl]-1-hydroxy-2-propynyl]phenoxy]acetic acid] |
| < 1 | COc1cc[nH]c1/C=C1\C(=O)Nc2ccc(N)c(C#Cc3cccnc3)c21 [HHH, (Z)-5-Amino-1,3-dihydro-3-[(3-methoxy-1H-pyrrol-2-yl)methylene]-4-[(3-pyridinyl)ethynyl]-2H-indol-2-one] |

Tested on: MMP-3
Test: MG-63 Cell-Based Assay, MMP-3 release after IL-1β stimulation (ELISA)
Conditions: Homo sapiens, MG63 cells, IL-1β stimulated, 24 hours with compound, read-out: IC50 (µM) in MG63 Cells MMP3
From the text: (§1) The MG63 cell line, a human osteosarcoma cell line, was purchased from American Type Culture Collection (ATCC; Rockville, MD) and grown in the medium recommended by ATCC. When stimulated with human IL-1β , MG63 cells release matrix metalloproteinase 3 (MMP-3), an AP-1 dependent inflammatory mediator and IL-6, a NF-κB-dependent mediator. In this assay the ability of a test compound to block MMP-3 expression and not block IL-6 expression is an indication that the compound is a selective inhibitor of the AP-1 transcription pathway.
(§2) On day 1 the cells were plated at 2.5X10^4 cells/well in 96 well plates. After 24 hours, dexamethasone (the assay control) (Sigma, St. Louis, MO) and the test compounds were diluted to appropriate concentrations and added to the MG63 cells. The cells were incubated with the compounds for 24 hours after which the supernatants were removed and analyzed by ELISA.
(§3) In the ELISA, 96 well plates were coated with antibody to MMP-3 or IL-6. Supernatants were added to the coated plates and any antigen (MMP-3 or IL-6) in the supernatant bound to the antibody coated on the plates. The plates were then washed with PBS containing 0.05% Tween 20 (Sigma, St. Louis, MO) and the biotinylated secondary antibody was added. This secondary antibody binds to the already bound antigen creating a "sandwich effect". Plates were washed as described above and horseradish peroxidase (HRP)-streptavidin conjugate (Sigma, St. Louis, MO) was added to the plates. HRP-streptavidin bound to the biotin-antibody conjugate. The plates were washed and TMB substrate (Kirkegaard and Perry Labs, Gaithersburg, MD) was added to the wells. This substrate changes color in the presence of HRP-streptavidin. The intensity of the color (measured at 450 nm) is proportional to the amount of MMP-3 or IL-6 produced by the MG63 cells upon exposure to IL-1β and the test compounds. Optical density values were converted to concentration (pg/ml or Units/ml) based on a standard curve included in the assay. IC50 values for each test compound were determined from the linear regression of a plot of the logarithm of the concentration of compound versus amount of MMP-3 or IL-6 secreted. (The MMP-3 antibodies were prepared in-house using standard hybridoma technology and the IL-6 antibodies were obtained from either Genzyme, Cambridge, MA or Pharmingen, San Diego, CA.).

| SMILES | IC50 [µM] |
| --- | --- |
| C#CC(O)c1ccc[nH]1 (stereo not drawn) [CC, 3-Hydroxy-3-(1H-pyrrol-2-yl)-1-propyne] | < 12.5 |

Tested on: IL-6
Test: MG-63 Cell-Based Assay, IL-6 release after IL-1β stimulation (ELISA)
Conditions: Homo sapiens, MG63 cells, IL-1β stimulated, 24 hours with compound, read-out: IC50 (µM) in MG63 Cells IL6
From the text: as §1, §2, §3

| SMILES | IC50 [µM] |
| --- | --- |
| C#CC(O)c1ccc[nH]1 (stereo not drawn) [CC, 3-Hydroxy-3-(1H-pyrrol-2-yl)-1-propyne] | < 20 |
